Experimental data as given in ChEMBL document CHEMBL5729030, “Compound as selective JAK inhibitor, and salt and therapeutic use thereof” (2022).

What was measured:
[1] = biological target: Tyrosine-protein kinase JAK2 (Homo sapiens, UniProt O60674); assay: (§1) Inhibition of JAK: The study of the effect of compounds on the activity of purified recombinant JAK was performed by studying the inhibitory activity of the compounds on JAK from the enzymatic level. The experimental principle is to use a luminescence kinase assay to detect the ADP content produced by the reaction of JAK with the substrate Poly (4:1 Glu, Tyr) peptide: after ADP is converted to ATP, ATP can act as a substrate for the Ultra-Glo luciferase catalytic reaction, producing an optical signal. The luminescence signal is positively correlated with the amount of ADP and kinase activity. Therefore, the inhibitory effect of the compounds on the recombinant JAK was determined by observing the luminescence signal produced by the reaction of JAK and the substrate, and was expressed by IC50.
Chain of Tyrosine-protein kinase JAK2 (O60674 whole entry): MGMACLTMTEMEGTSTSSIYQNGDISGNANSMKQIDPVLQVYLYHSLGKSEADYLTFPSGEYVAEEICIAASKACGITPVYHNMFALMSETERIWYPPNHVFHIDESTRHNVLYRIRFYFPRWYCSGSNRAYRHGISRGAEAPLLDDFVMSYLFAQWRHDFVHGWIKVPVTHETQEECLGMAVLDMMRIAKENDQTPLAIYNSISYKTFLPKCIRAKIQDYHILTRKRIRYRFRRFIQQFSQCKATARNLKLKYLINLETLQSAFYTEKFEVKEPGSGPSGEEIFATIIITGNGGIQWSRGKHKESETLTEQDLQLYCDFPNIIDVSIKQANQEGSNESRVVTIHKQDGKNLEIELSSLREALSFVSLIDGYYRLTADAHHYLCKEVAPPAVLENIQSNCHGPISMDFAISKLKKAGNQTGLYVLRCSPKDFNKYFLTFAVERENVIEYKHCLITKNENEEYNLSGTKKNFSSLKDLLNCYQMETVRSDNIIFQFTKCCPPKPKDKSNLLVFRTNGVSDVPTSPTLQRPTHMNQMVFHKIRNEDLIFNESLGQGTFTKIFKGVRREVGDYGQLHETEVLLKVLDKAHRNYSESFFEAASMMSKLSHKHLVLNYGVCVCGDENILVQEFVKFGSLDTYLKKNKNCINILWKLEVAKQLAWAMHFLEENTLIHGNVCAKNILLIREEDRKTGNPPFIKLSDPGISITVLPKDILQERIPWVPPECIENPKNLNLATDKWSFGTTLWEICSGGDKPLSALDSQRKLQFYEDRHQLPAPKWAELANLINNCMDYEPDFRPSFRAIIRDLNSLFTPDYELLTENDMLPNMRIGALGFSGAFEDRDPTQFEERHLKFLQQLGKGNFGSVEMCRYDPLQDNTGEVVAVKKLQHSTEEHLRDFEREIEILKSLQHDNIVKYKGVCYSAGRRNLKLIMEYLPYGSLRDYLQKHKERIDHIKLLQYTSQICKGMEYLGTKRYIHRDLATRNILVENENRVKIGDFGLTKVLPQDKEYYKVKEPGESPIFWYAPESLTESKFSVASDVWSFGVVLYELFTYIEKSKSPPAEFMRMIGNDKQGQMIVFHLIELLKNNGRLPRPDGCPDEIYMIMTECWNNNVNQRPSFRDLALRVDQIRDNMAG

[2] = biological target: T1, Tyrosine-protein kinase JAK3 (Homo sapiens, UniProt P52333); assay: as §1
T1 sequence (P52333 whole entry): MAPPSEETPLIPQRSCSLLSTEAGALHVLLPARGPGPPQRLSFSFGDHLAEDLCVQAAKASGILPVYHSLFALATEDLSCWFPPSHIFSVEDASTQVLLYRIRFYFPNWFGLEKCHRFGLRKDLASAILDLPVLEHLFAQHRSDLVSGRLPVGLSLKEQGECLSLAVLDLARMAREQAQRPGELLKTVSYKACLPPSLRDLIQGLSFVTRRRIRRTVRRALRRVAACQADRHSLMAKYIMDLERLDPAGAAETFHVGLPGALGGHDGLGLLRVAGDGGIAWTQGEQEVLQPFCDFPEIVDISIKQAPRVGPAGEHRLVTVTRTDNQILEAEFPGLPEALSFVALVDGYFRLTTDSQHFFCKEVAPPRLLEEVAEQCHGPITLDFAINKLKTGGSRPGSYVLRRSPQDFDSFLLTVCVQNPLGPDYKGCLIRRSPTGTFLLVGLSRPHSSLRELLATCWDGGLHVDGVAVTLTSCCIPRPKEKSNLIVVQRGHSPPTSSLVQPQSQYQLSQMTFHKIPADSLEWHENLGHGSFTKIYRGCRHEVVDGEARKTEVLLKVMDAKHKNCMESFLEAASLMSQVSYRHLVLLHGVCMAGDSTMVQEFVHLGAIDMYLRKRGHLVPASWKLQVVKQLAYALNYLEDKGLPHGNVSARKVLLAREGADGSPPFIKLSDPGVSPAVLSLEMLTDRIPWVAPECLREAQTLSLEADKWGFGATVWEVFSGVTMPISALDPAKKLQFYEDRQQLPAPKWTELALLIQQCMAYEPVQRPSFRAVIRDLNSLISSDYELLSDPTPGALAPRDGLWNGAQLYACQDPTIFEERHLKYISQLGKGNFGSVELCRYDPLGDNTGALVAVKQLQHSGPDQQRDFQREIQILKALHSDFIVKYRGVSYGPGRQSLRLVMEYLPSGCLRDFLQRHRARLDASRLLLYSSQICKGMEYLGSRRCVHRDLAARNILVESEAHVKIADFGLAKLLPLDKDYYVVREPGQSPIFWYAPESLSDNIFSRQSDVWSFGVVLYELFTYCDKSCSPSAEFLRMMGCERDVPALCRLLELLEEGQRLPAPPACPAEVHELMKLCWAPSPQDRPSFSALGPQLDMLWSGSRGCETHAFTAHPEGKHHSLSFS

IC50 [1] [nM]	IC50 [2] [nM]	Compound
> 50	> 50	CS(=O)(=O)C1CN(Cc2ccc(-c3cccn4nc(NC(=O)C5CC5)nc34)cc2F)C1
> 50	> 50	CS(=O)(=O)C1CN(Cc2ccc(-c3cccc4nc(NC(=O)C5CC5)nn34)cc2F)C1
